The text below walks through data of patent publication US8563715B2, “Pyrimidine derivative having cell protecting effect and uses thereof” (Zenyaku Kogyo Kabushikikaisha, priority 2008, dated 2013).

SMILES strings stand for the structures.

By melting point is commonly meant the temperature, or range, at which the solid turns liquid.

Regarding `c1ccc(Cc2c(N3CCOCC3)nc(N3CCOCC3)nc2N2CCN(c3ccccc3)CC2)cc1` [Compound 49, 5-benzyl-2,4-dimorpholino-6-(4-phenylpiperazin-1-yl)pyrimidine], the melting point was 162 to 165 °C.
With `COc1c(N2CCOCC2)nc(N2CCOCC2)nc1N1CCN(c2ccccc2)CC1` [Compound 50, 5-methoxy-2,4-dimorpholino-6-(4-phenylpiperazin-1-yl)pyrimidine], the melting point lay within 118 to 120 °C.
Take `O=CN1CCN(c2cc(N3CCOCC3)nc(N3CCN(c4ccccc4)CC3)n2)CC1` [Compound 53, 4-(4-formylpiperazin-1-yl)-6-morpholino-2-(4-phenylpiperazin-1-yl)pyrimidine]: the melting point was in the range of 171 to 172 °C.
`CC(=O)N1CCN(c2cc(N3CCOCC3)nc(N3CCN(c4ccccc4)CC3)n2)CC1` [Compound 54, 4-(4-acetylpiperazin-1-yl)-6-morpholino-2-(4-phenylpiperazin-1-yl)pyrimidine] showed a melting point of 171 to 172 °C.
Compound `CCCCN(CCCC)c1cc(N2CCOCC2)nc(N2CCN(c3ccccc3)CC2)n1` [Compound 55, 6-dibutylamino-4-morpholino-2-(4-phenylpiperazin-1-yl)pyrimidine] returned a melting point of 84 to 85 °C.
`Fc1ccccc1N1CCN(c2cc(N3CCOCC3)nc(N3CCN(c4ccccc4)CC3)n2)CC1` [Compound 58, 4-[4-(2-fluorophenyl)piperazin-1-yl]-6-morpholino-2-(4-phenylpiperazin-1-yl)pyrimidine] showed a melting point of 90 to 91 °C.
As to `Fc1ccccc1N1CCN(c2cc(N3CCOCC3)nc(N3CCN(c4ccccc4F)CC3)n2)CC1` [Compound 59, 2,4-bis[4-(2-fluorophenyl)piperazin-1-yl]-6-morpholinopyrimidine], the melting point is 98 to 99 °C.
Consider `Cc1ccccc1N1CCN(c2cc(N3CCOCC3)nc(N3CCN(c4ccccc4F)CC3)n2)CC1` [Compound 60, 2-[4-(2-fluorophenyl)piperazin-1-yl]-4-[4-(2-methylphenyl)piperazin-1-yl]-6-morpholinopyrimidine], for which the melting point was in the range of 98 to 99 °C.
`Cc1ccccc1N1CCN(c2cc(N3CCOCC3)nc(N3CCN(c4ccccc4C)CC3)n2)CC1` [Compound 62, 2,4-bis[4-(2-methylphenyl)piperazin-1-yl]-6-morpholinopyrimidine] returned a melting point of 98 to 99 °C.
Compound `CC(=O)Nc1c(N2CCOCC2)nc(N2CCN(c3ccccc3)CC2)nc1N1CCOCC1` [Compound 77, 5-acetylamino-4,6-dimorpholino-2-(4-phenylpiperazin-1-yl)pyrimidine] yielded a melting point of 229 to 230 °C.
`COc1ccc(/C=C/c2nc(N3CCOCC3)c(NC(C)=O)c(N3CCOCC3)n2)cc1` [Compound 79, 5-acetylamino-2-[2-(4-methoxyphenyl)vinyl]-4,6-dimorpholinopyrimidine] yielded a melting point of 189 to 191 °C.
`CCNc1c(N2CCOCC2)nc(N2CCN(c3ccccc3)CC2)nc1N1CCOCC1` [Compound 80, 5-ethylamino-4,6-dimorpholino-2-(4-phenylpiperazin-1-yl)pyrimidine] showed a melting point of 100 to 104 °C.
For `Fc1c(N2CCOCC2)nc(N2CCOCC2)nc1N1CCN(Cc2ccccc2)CC1` [Compound 90, 4-(4-benzylpiperazin-1-yl)-5-fluoro-2,6-dimorpholinopyrimidine], the melting point was in the range of 108 to 111 °C.
As to `Fc1c(N2CCOCC2)nc(N2CCN(c3ncccn3)CC2)nc1N1CCOCC1` [Compound 92, 5-fluoro-4,6-dimorpholino-2-[4-(pyrimidin-2-yl)piperazin-1-yl]pyrimidine], the melting point lay in the range of 163 to 165 °C.
In turn, `Fc1c(N2CCOCC2)nc(N2CCNC(c3ccccc3)C2)nc1N1CCOCC1` (stereo not drawn) [Compound 93, 5-fluoro-4,6-dimorpholino-2-(3-phenylpiperazin-1-yl)pyrimidine] showed a melting point of 170 to 175 °C.
For `Fc1ccc(N2CCN(c3nc(N4CCOCC4)c(F)c(N4CCOCC4)n3)CC2)cc1` [Compound 96, 5-fluoro-2-[4-(4-fluorophenyl)piperazin-1-yl]-4,6-dimorpholinopyrimidine] the value was 195 to 198 °C; for `Fc1ccc(N2CCN(c3nc(N4CCOCC4)nc(N4CCOCC4)c3F)CC2)cc1` [Compound 97, 5-fluoro-4-[4-(4-fluorophenyl)piperazin-1-yl]-2,6-dimorpholinopyrimidine], 171 to 174 °C; for `Cc1ccc(N2CCN(c3nc(N4CCOCC4)c(F)c(N4CCOCC4)n3)CC2)cc1` [Compound 98, 5-fluoro-2-[4-(4-methylphenyl)piperazin-1-yl]-4,6-dimorpholinopyrimidine], 201 to 203 °C.
For `CC(=O)c1ccc(N2CCN(c3nc(N4CCOCC4)c(F)c(N4CCOCC4)n3)CC2)cc1` [Compound 100, 2-[4-(4-acetylphenyl)piperazin-1-yl]-5-fluoro-4,6-dimorpholinopyrimidine] the value was 195 to 198 °C; for `Fc1c(N2CCOCC2)nc(N2CCN(c3ccccc3Cl)CC2)nc1N1CCOCC1` [Compound 102, 2-[4-(2-chlorophenyl)piperazin-1-yl]-5-fluoro-4,6-dimorpholinopyrimidine], 118 °C.
For the compound `CCOc1ccccc1N1CCN(c2nc(N3CCOCC3)c(F)c(N3CCOCC3)n2)CC1` [Compound 103, 2-[4-(2-ethoxyphenyl)piperazin-1-yl]-5-fluoro-4,6-dimorpholinopyrimidine], the melting point was found to be 145 °C.
`Cc1ccccc1N1CCN(c2nc(N3CCOCC3)c(F)c(N3CCOCC3)n2)CC1` [Compound 104, 5-fluoro-2-[4-(2-methylphenyl)piperazin-1-yl]-4,6-dimorpholinopyrimidine] registered a melting point of 72 °C.
`Fc1ccccc1N1CCN(c2nc(N3CCOCC3)c(F)c(N3CCOCC3)n2)CC1` [Compound 106, 5-fluoro-2-[4-(2-fluorophenyl)piperazin-1-yl]-4,6-dimorpholinopyrimidine] came in with a melting point of 144 °C.
The figure for `Oc1ccc(N2CCN(c3nc(N4CCOCC4)c(F)c(N4CCOCC4)n3)CC2)cc1` [Compound 107, 5-fluoro-2-[4-(4-hydroxyphenyl)piperazin-1-yl]-4,6-dimorpholinopyrimidine] is 141 °C; for `COc1ccccc1N1CCN(c2nc(N3CCOCC3)c(F)c(N3CCOCC3)n2)CC1` [Compound 108, 5-fluoro-2-[4-(2-methoxyphenyl)piperazin-1-yl]-4,6-dimorpholinopyrimidine] it is 171 °C; for `Fc1c(N2CCOCC2)nc(N2CCN(c3ccc(Cl)cc3)CC2)nc1N1CCOCC1` [Compound 109, 2-[4-(4-chlorophenyl)piperazin-1-yl]-5-fluoro-4,6-dimorpholinopyrimidine] it is 215 °C.
Compound `COc1ccccc1N1CCN(c2nc(N(C)C)nc(N3CCOCC3)c2F)CC1` [Compound 111, 2-dimethylamino-5-fluoro-4-[4-(2-methoxyphenyl)piperazin-1-yl]-6-morpholinopyrimidine] had a melting point of 108 °C.
The compound `CN(C)c1nc(N2CCOCC2)c(F)c(N2CCN(c3ccccc3F)CC2)n1` [Compound 112, 2-dimethylamino-5-fluoro-4-[4-(2-fluorophenyl)piperazin-1-yl]-6-morpholinopyrimidine] registered a melting point of 95 °C.
In turn, `CN(C)c1nc(N2CCOCC2)c(F)c(N2CCN(c3ccc(Cl)cc3)CC2)n1` [Compound 113, 4-[4-(4-chlorophenyl)piperazin-1-yl]-2-dimethylamino-5-fluoro-6-morpholinopyrimidine] came in with a melting point of 152 °C.
For `OC1(c2ccccc2)CCN(c2nc(N3CCOCC3)c(F)c(N3CCOCC3)n2)CC1` [Compound 116, 5-fluoro-2-(4-hydroxy-4-phenylpiperidin-1-yl)-4,6-dimorpholinopyrimidine] the value was 177 to 180 °C.
For the compound `OC1(c2ccccc2)CCN(c2nc(N3CCOCC3)nc(N3CCOCC3)c2F)CC1` [Compound 117, 5-fluoro-4-(4-hydroxy-4-phenylpiperidin-1-yl)-2,6-dimorpholinopyrimidine], the melting point fell in the range of 128 to 131 °C.
For `CC(=O)C1(c2ccccc2)CCN(c2nc(N3CCOCC3)c(F)c(N3CCOCC3)n2)CC1` [Compound 118, 2-(4-acetyl-4-phenylpiperidin-1-yl)-5-fluoro-4,6-dimorpholinopyrimidine] the value was 201 to 205 °C; for `Fc1c(N2CCOCC2)nc(N2CC=C(c3ccccc3)CC2)nc1N1CCOCC1` [Compound 120, 5-fluoro-4,6-dimorpholino-2-[4-phenyl-1,2,5,6-tetrahydropyridin-1-yl]pyrimidine], 132 to 135 °C.
For `Fc1c(N2CCOCC2)nc(N2CCOCC2)nc1N1CCN(C2CCCCC2)CC1` [Compound 124, 4-(4-cyclohexylpiperazin-1-yl)-5-fluoro-2,6-dimorpholinopyrimidine], the melting point is 125 to 128 °C.
In turn, `Cc1ccccc1N1CCN(c2nc(N3CCN(c4ccccc4F)CC3)nc(N3CCOCC3)c2F)CC1` [Compound 127, 5-fluoro-2-[4-(2-fluorophenyl)piperazin-1-yl]-4-[4-(2-methylphenyl)piperazin-1-yl]-6-morpholinopyrimidine] returned a melting point of 71 to 72 °C.
`Cc1ccccc1N1CCN(c2nc(N3CCOCC3)c(F)c(N3CCN(c4ccccc4C)CC3)n2)CC1` [Compound 129, 2,4-bis[4-(2-methylphenyl)piperazin-1-yl]-5-fluoro-6-morpholinopyrimidine]: the melting point fell in the range of 106 to 107 °C.
The compound `Clc1c(N2CCOCC2)nc(N2CCN(c3ccccc3)CC2)nc1N1CCOCC1` [Compound 130, 5-chloro-4,6-dimorpholino-2-(4-phenylpiperazin-1-yl)pyrimidine] displayed a melting point of 131 to 133 °C.
The figure for `Nc1c(N2CCOCC2)nc(/C=C/c2cccs2)nc1N1CCOCC1` [Compound 132, 5-amino-4,6-dimorpholino-2-[2-(2-thienyl)vinyl]pyrimidine] is 221 to 223 °C; for `Nc1c(N2CCOCC2)nc(/C=C/c2ccncc2)nc1N1CCOCC1` [Compound 134, 5-amino-4,6-dimorpholino-2-[2-(pyridin-4-yl)vinyl]pyrimidine] it is 216 to 220 °C.
